Data as given in a melting point compilation (Tetko et al.; mined from patent text by program, amines drawn as free bases though some values may be those of a salt).

Row | Structure (SMILES) | melting point
1 | COc1ccc(C(=O)C2=C(c3ccccc3)CCc3ccccc32)cc1 | 106 to 107 °C
2 | CC(=O)NC1CCC(N2CCNC2=O)CC1 (stereo unspecified) | 211 to 230 °C
3 | Fc1ccc(-c2nc(-c3ccccc3)sc2-c2ccncc2)cc1 | 135 to 137 °C
4 | N=C(Nc1ccc2c(c1)CNCCO2)c1ccsc1 | 150 to 152 °C
5 | OCc1cc(F)nc(F)c1 | 66 to 67 °C
6 | COc1ccc(C(=O)C2=C(c3ccccc3)c3ccccc3S2=O)cc1 (stereo unspecified) | 118 to 120 °C
7 | CCCCCCCCCCCCCCCCSCC(CO)NC(=O)OC(C)(C)C (stereo unspecified) | 48 to 50 °C
8 | CC1CN(Cc2n[nH]c3ccccc23)CCN1c1ccccc1 (single isomer, unassigned; (+)) | 164 to 165 °C
9 | CC(=O)N(CCCC(=O)O)C(c1ccccc1)c1ccccc1 | 173 to 174 °C
10 | CC1(C(=O)N2CCC(n3c(=O)[nH]c4ccccc43)CC2)OCc2ccccc2-n2cccc21 (stereo unspecified) | 208 to 210 °C
11 | Nc1ccc2ccccc2c1S | 108 to 110 °C
12 | CC#CCOc1ccc(C(=O)NC[C@@H](C(=O)NO)N2CCCCC2)cc1 | 144 °C
13 | COC(=O)c1ccc2c(c1)C(=O)C(C=C1C=CC=C(C(=O)O)C1)O2 (stereo unspecified) | 280 °C
14 | O=C1c2c(ccc(F)c2Cl)-n2cnc(-c3noc(CCl)n3)c2[C@@H]2CCN12 | 214 to 217 °C
15 | O=C(O)Cc1cc(Cc2cccc(Oc3ccccc3)c2)ccc1Nc1c(Cl)cccc1Cl | 116 to 117 °C
16 | Cc1nn(C)c(S(N)(=O)=O)c1[N+](=O)[O-] | 138 to 140 °C
17 | CCN(CC)C(=O)OCC1CN(C(=S)c2cc(OC)c(OC)c(OC)c2)CCN1C(=O)c1cc(OC)c(OC)c(OC)c1 (stereo unspecified) | 106 °C
18 | CC(=O)OCC1OC(n2cc(Cc3ccc(Br)s3)c3c(Cl)cccc32)C(OC(C)=O)C(OC(C)=O)C1OC(C)=O (stereo unspecified) | 185 to 187 °C
19 | C[C@H]1Cn2c(=S)[nH]c3cccc(c32)CN1CC1CC1 | 197 °C
20 | O=C(O)c1cc2c(cn1)[nH]c1ccccc12 | 307 to 309 °C
21 | COC1CCC2(C)C(=CCC3C4CCC(=O)C4(C)CCC32)C1 (stereo unspecified) | 133 to 135 °C

Continued, values first:

Row | melting point | Structure (SMILES)
22 | 151 to 152 °C | Cc1cc(Cl)c2c(c1)C(=O)N(C(C)(C)C)CC(=O)N2
23 | 188 to 189 °C | CCOC(=O)C=Cc1ccc(NC(=O)Nc2cccnc2)cc1
24 | 209 °C | COc1ccc(C2CC(C(C)(C)C)=NN2c2ccc(C(=O)O)cc2)cc1 (stereo unspecified)
25 | 144 to 146 °C | CCOC(=O)Cc1nc(-c2ccc(Cl)cc2)oc1OCC
26 | 108 to 110 °C | O=C(CS(=O)c1ccccc1)Nc1c([N+](=O)[O-])cnn1-c1c(Cl)cc(C(F)(F)F)cc1Cl (stereo unspecified)
27 | 25.5 to 26.5 °C | COCCOCCCCC(=O)c1ccc(Br)cc1
28 | 97 to 99 °C | CC(=O)CS(=O)(=O)CCc1ccc2c(c1)OCO2
29 | 267 °C | O=C(Nc1cnns1)c1ccccc1
30 | 64 to 65 °C | CCOc1c(C2=C(C(C)(C)C)C(C)(C)CO2)sc2ccc(O[Si](C)(C)C(C)(C)C)cc12
31 | 87 to 92 °C | COc1c(CC(=O)O)cccc1Oc1ccccc1Cl
32 | 205 to 208 °C | CCCN(CCC)C(=O)Cn1c(-c2ccc([N+](=O)[O-])cc2)nc2cccnc21
33 | 146 °C | CCOC(=O)C(C(=O)C(C)C)C1c2ccccc2C(=O)N1c1ccc2ccc(Cl)nc2n1 (stereo unspecified)
34 | 161 to 163 °C | CN1CC(c2ccc(S(C)(=O)=O)cc2)=C(c2ccc(Br)cc2)C1=O
35 | 129 to 131 °C | CCS(=O)c1cccnc1S(=O)(=O)NC(C)(C)C (stereo unspecified)
36 | 153 to 155 °C | CCC(=O)N(C)N1CC(C)(C)C(=O)c2ccc(S(=O)(=O)c3ccccc3)cc21
37 | 128 to 129 °C | CCc1nn2ccc3oc(C)cc3c2c1CCNC(C)=O
38 | 101 to 102 °C | Cc1oc(-c2ccccc2)nc1COc1cccc(CO)c1
39 | 50 °C | CCOC(=O)C(C=O)c1ccc(Cl)cc1 (stereo unspecified)
40 | 144 to 146 °C | Nc1cc(N2CCNCC2)ccc1S(=O)(=O)c1ccc(F)cc1
41 | 160 to 162 °C | CC(=O)c1cn(S(=O)(=O)c2ccccc2)c2nccc(Cl)c12
